In patent publication US5474993A, “Lactam inhibitors of cholesterol esterase” (Sterling Winthrop, Inc., priority 1994, dated 1995):

Target: T1, pancreatic cholesterol esterase (PCEH) (Homo sapiens, UniProt P19835)
T1 sequence (P19835 21-753): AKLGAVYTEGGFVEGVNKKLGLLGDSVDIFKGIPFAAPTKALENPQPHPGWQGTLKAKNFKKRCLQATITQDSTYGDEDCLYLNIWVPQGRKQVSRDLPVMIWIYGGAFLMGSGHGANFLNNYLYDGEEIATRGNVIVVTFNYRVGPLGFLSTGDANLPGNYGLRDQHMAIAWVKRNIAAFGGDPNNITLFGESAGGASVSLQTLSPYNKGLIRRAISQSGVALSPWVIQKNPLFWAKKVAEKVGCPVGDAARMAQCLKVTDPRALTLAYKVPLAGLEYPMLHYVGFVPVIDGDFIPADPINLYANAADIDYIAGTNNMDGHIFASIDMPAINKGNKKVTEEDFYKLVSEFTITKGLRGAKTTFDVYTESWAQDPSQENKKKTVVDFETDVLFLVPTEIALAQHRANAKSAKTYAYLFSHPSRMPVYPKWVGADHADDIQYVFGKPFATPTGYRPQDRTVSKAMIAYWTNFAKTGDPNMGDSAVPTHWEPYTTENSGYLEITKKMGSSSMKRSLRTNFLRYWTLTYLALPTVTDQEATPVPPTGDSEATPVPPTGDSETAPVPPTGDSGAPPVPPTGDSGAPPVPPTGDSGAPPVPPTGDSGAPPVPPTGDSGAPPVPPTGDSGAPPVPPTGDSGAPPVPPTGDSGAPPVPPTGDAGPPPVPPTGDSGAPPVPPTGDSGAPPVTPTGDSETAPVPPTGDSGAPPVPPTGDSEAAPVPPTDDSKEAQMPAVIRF
Assay: KM estimation for PNPA substrate
Assay type: biochemical
Conditions: nonlinear fit to the rate-progress curve
Description: Purified pancreatic cholesterol esterase or ester hydrolase (PCH), shown by SDS-acrylamide and isoelectric focusing electrophoresis to be homogeneous,is used in a fresh solution of 90 mM (PNPA) in methanol.
First an initial screen is conducted as follows: to determine the effect of an inhibitor on the rate of enzyme catalyzed hydrolysis of PNPA, enzyme and inhibitor are first incubated at room temperature for ten minutes. Following incubation, enough PNPA substrate to give a final concentration of 0.225 mM is added. The rate of PNPA hydrolysis is monitored by observing an increase of absorption at 405 nm over the course of ten minutes. On average, the concentration of inhibitor is 1300-fold greater than that of the enzyme inhibitor concentrate. The maximum solubility of PNPA of approximately twice the value of Km, limited the accuracy the KM determination for the PNPA substrate. The estimated KM based on a nonlinear fit to the rate-progress curve is KM ~1 mM. With this estimate the substrate concentration used in the screen was approximately 0.25 KM.

CC(=O)Oc1ccc([N+](=O)[O-])cc1 [PNPA, p-nitrophenyl acetate]
estimated KM: ~ 1 mM
